According to patent US3959272A, “Aminoalkyl esters of 2-anilino-nicotinic acids” (Societe Anonyme dite: Hexachime, priority 1972, dated 1976):

Assays:
[1] = Anti-inflammatory activity: oedema provoked by carragenin in the rat; format: in vivo; conditions: po, read-out: percentage inhibition of oedema; for inhibition in vivo at 64 mg/kg: 64 mg/kg orally; for inhibition in vivo at 128 mg/kg: 128 mg/kg orally; for inhibition in vivo at 256 mg/kg: 256 mg/kg orally; for inhibition in vivo at 512 mg/kg: 512 mg/kg orally
Method: The method used was as follows.
The anti-inflammatory activity was measured on oedema provoked by carragenin in the rat. Groups of six male rats each weighing 120 to 130 g received the compound under test orally in suspension in "tween 80", half the dose being given 2 hours before and the other half 1/2 hour before the subcutaneous plantar injection of 0.05 ml of a 1 % carragenin solution. The volume of the injected paw was measured by plethysmography at regular intervals. Table 1 below gives the percentage inhibition of the oedema with reference to untreated controls.

[2] = Analgesic activity: Siegmund's test (phenylbenzoquinone painful reactions); format: in vivo; conditions: Mus musculus, po, read-out: percentage inhibition of reactions; for inhibition in vivo at 32 mg/kg: 32 mg/kg orally; for inhibition in vivo at 64 mg/kg: 64 mg/kg orally; for inhibition in vivo at 128 mg/kg: 128 mg/kg orally; for inhibition in vivo at 256 mg/kg: 256 mg/kg orally; for inhibition in vivo at 512 mg/kg: 512 mg/kg orally
Method: This activity was measured by Siegmund's test in mice and Randall and Selitto's test in the rat.
Groups of six mice received the compound under test orally 1 hour before intraperitoneal injection of 0.2 ml of an 0.02% of solution of phenylbenzoquinone. The number of painful reactiors from the fifth to the tenth minute after the injection of phenylbenzoquinone was counted.

[3] = Analgesic activity: Randall and Selitto's test (beer yeast paw, pain threshold); format: in vivo, rat
Method: This activity was measured by Siegmund's test in mice and Randall and Selitto's test in the rat. Groups of ten male rats each weight 120 to 140 g received by subcutaneous plantar injection 0.05 ml of a 5% aqueous suspension of beer yeast. 2 Hours after this treatment they received the compound under test orally and 1 hour after administration of this compound the paw which had been injected and the contralateral paw were subjected to increasing pressure. The appearance of the pain threshold was noted.

Escape test = format: in vivo; conditions: Mus musculus, ip, 0.5 h, read-out: Percentage inhibition (number of attempts to escape); for change in vivo at 8 mg/kg: 8 mg/kg intraperitoneally; for change in vivo at 16 mg/kg: 16 mg/kg intraperitoneally; for change in vivo at 32 mg/kg: 32 mg/kg intraperitoneally; for change in vivo at 64 mg/kg: 64 mg/kg intraperitoneally; for change in vivo at 128 mg/kg: 128 mg/kg intraperitoneally; for change in vivo at 256 mg/kg: 256 mg/kg intraperitoneally
Method: Groups of 8 mice were placed in sub groups of 4 in an enclosure from which they could escape by an inclined plane. The number of attempts to escape during 5 minutes were counted half an hour after intraperitoneal administration of the compound under test.

[4] = Antagonism of convulsions produced by cardiazole; format: in vivo; conditions: Mus musculus, ip, read-out: Percentage inhibition of tonic convulsions; for inhibition in vivo at 4 mg/kg: 4 mg/kg intraperitoneally; for inhibition in vivo at 8 mg/kg: 8 mg/kg intraperitoneally; for inhibition in vivo at 16 mg/kg: 16 mg/kg intraperitoneally; for inhibition in vivo at 32 mg/kg: 32 mg/kg intraperitoneally; for inhibition in vivo at 64 mg/kg: 64 mg/kg intraperitoneally; for inhibition in vivo at 128 mg/kg: 128 mg/kg intraperitoneally; for inhibition in vivo at 256 mg/kg: 256 mg/kg intraperitoneally
Method: Groups of 6 mice received the compound under test 30 minutes before introperitoneal injection of 160 mg/kg of cardiazole. The action of the compound under test on the tonic convulsion phase was observed.

[5] = Potentiation of stereotypes by amphetamine; format: in vivo, rat; conditions: 5 mg/kg dexamphetamine sulphate
Method: The compound under test was administered to groups of 5 rats intraperitoneally. Thirty minutes afterwards, 5 mg/kg of dexamphetamine sulphate was injected intraperitoneally. The duration of the phenomenon is counted at regular intervals from 0 to 4 and the counts are added up.

Solubility in water = format: physicochemical; conditions: monohydrochloride
[6] = without yeast, 128 mg/kg orally
[7] = without yeast, 256 mg/kg orally

Row | SMILES | inhibition in vivo at 64 mg/kg [1] [%] | inhibition in vivo at 128 mg/kg [1] [%] | inhibition in vivo at 256 mg/kg [1] [%] | inhibition in vivo at 32 mg/kg [2] [%] | inhibition in vivo at 64 mg/kg [2] [%] | inhibition in vivo at 128 mg/kg [2] [%] | change in vivo at 16 mg/kg (Escape test) [%] | change in vivo at 32 mg/kg (Escape test) [%] | change in vivo at 64 mg/kg (Escape test) [%] | change in vivo at 128 mg/kg (Escape test) [%] | inhibition in vivo at 16 mg/kg [4] [%] | inhibition in vivo at 32 mg/kg [4] [%] | inhibition in vivo at 64 mg/kg [4] [%] | inhibition in vivo at 128 mg/kg [4] [%] | inhibition in vivo at 256 mg/kg [2] [%] | inhibition in vivo at 512 mg/kg [1] [%] | change in vivo at 256 mg/kg (Escape test) [%] | inhibition in vivo at 256 mg/kg [4] [%] | inhibition in vivo at 512 mg/kg [2] [%] | also measured
1 | Cc1cccc(Nc2ncccc2C(=O)OCCN2CCCCC2)c1C [Example 2, β-Piperidino ethyl nixylate] | 6 | 42 | 70 | 24 | 48 | 69 | -21 | -43 | -80 | -100 | 5 | 22 | 72 | 100 | – | – | – | – | – | percentage increase of pain threshold ([3]; with yeast, 64 mg/kg orally): 5%; percentage increase of pain threshold ([3]; with yeast, 128 mg/kg orally): 30%; percentage increase of pain threshold ([3]; with yeast, 256 mg/kg orally): 87%; percentage increase of pain threshold ([3]; without yeast, 64 mg/kg orally): 0%; percentage increase of pain threshold [3, 6]: 52%; percentage increase of pain threshold [3, 7]: 33%; change in vivo at 8 mg/kg (Escape test): 6%; inhibition in vivo at 4 mg/kg [4]: 0%; inhibition in vivo at 8 mg/kg [4]: 16%
2 | Cc1cccc(Nc2ncccc2C(=O)OCCN2CCN(C)CC2)c1C [Example 4, β-(N-methylpiperazino)ethyl nixylate] | 0 | 50 | 62 | 8 | 33 | 69 | -11 | -37 | -61 | -95 | 0 | 0 | 58 | 91 | 84 | – | – | – | – | percentage increase of pain threshold ([3]; with yeast, 16 mg/kg orally): 0%; percentage increase of pain threshold ([3]; with yeast, 32 mg/kg orally): 31%; percentage increase of pain threshold ([3]; with yeast, 64 mg/kg orally): 27%; percentage increase of pain threshold ([3]; with yeast, 128 mg/kg orally): 61%; percentage increase of pain threshold ([3]; with yeast, 256 mg/kg orally): 16%; percentage increase of pain threshold ([3]; without yeast, 16 mg/kg orally): 8%; percentage increase of pain threshold ([3]; without yeast, 32 mg/kg orally): 30%; percentage increase of pain threshold ([3]; without yeast, 64 mg/kg orally): 46%; percentage increase of pain threshold [3, 6]: 38%; percentage increase of pain threshold [3, 7]: 10%; change in vivo at 8 mg/kg (Escape test): 2%
3 | O=C(OCCN1CCOCC1)c1cccnc1Nc1ccccc1 [Example 5, β-Morpholino ethyl 2-anilino nicotinate] | – | 0 | 17 | 16 | 38 | 57 | -12 | -5 | -23 | -20 | 33 | 33 | 16 | 33 | 83 | 71 | -78 | 100 | – | inhibition in vivo at 4 mg/kg [4]: 0%; inhibition in vivo at 8 mg/kg [4]: 16%; Sum of the counts (stereotypes) ([5]; 16 mg/kg intraperitoneally): 14; Sum of the counts (stereotypes) ([5]; 64 mg/kg intraperitoneally): 22; Sum of the counts (stereotypes) ([5]; 256 mg/kg intraperitoneally): 44
4 | Cc1cccc(C)c1Nc1ncccc1C(=O)OCCN1CCOCC1 [Example 6, β-Morpholino ethyl 2-(2,6-dimethylanilino) nicotinate] | 0 | 13 | 36 | – | 23 | 39 | -13 | -20 | -35 | -74 | – | – | – | – | 69 | 80 | -100 | – | 100 | –
5 | Cc1ccc(Nc2ncccc2C(=O)OCCN2CCOCC2)cc1Cl [Example 7, β-Morpholino ethyl 2-(3-chloro-4-methylanilino) nicotinate] | – | 2 | 29 | 14 | 33 | 55 | -48 | – | -62 | – | – | – | 0 | 9 | 55 | 53 | -96 | 59 | 77 | –
6 | Cc1ccc(Cl)cc1Nc1ncccc1C(=O)OCCN1CCOCC1 [Example 8, β-Morpholino ethyl 2-(2-methyl-5-chloroanilino) nicotinate] | 0 | – | 36 | – | – | – | – | -25 | -52 | -62 | – | 0 | 17 | 33 | 18 | – | -83 | 67 | 74 | inhibition in vivo at 512 mg/kg ([4]; 512 mg/kg intraperitoneally): 100%; Sum of the counts (stereotypes) ([5]; 32 mg/kg intraperitoneally): 89; Sum of the counts (stereotypes) ([5]; 64 mg/kg intraperitoneally): 87; Sum of the counts (stereotypes) ([5]; 128 mg/kg intraperitoneally): 161; Sum of the counts (stereotypes) ([5]; 256 mg/kg intraperitoneally): 195
7 | Cc1cccc(Cl)c1Nc1ncccc1C(=O)OCCN1CCOCC1 [Example 9, β-Morpholino ethyl 2-(2-chloro-6-methylanilino) nicotinate] | 20 | – | 39 | 8 | 8 | 37 | -19 | -22 | -59 | -100 | – | – | 0 | 100 | 66 | – | – | – | – | inhibition in vivo at 16 mg/kg ([1]; 16 mg/kg orally): 7%; inhibition in vivo at 16 mg/kg ([2]; 16 mg/kg orally): 14%; solubility in water (Solubility in water): soluble in water
